Test results reported in ChEMBL document CHEMBL3046603, “Synthesis and antibacterial, antifungal activities of some 2r,4c-diaryl-3-azabicyclo[3.3.1]nonan-9-one-4-aminobenzoyl hydrazones” (2012).
Converted amounts (≈) assume the structure as drawn. The source made the active and inactive calls. No cut-off for these calls is given here.

What was measured:
Bacillus subtilis = assay: Antibacterial activity against Bacillus subtilis MTCC 121 after 24 hr two-fold serial dilution method; format: functional; conditions: MTCC 121, 24 h
Klebsiella pneumoniae = assay: Antibacterial activity against Klebsiella pneumoniae MTCC 2272 after 24 hr two-fold serial dilution method; format: functional; conditions: MTCC 2272, 24 h
Pseudomonas aeruginosa = assay: Antibacterial activity against Pseudomonas aeruginosa MTCC 741 after 24 hr two-fold serial dilution method; format: functional; conditions: MTCC 741, 24 h
Staphylococcus aureus = assay: Antibacterial activity against Staphylococcus aureus MTCC 96 after 24 hr two-fold serial dilution method; format: functional; conditions: MTCC 96, 24 h
Salmonella typhimurium = assay: Antibacterial activity against Salmonella enterica subsp. enterica serovar Typhimurium MTCC 98 after 24 hr two-fold serial dilution method; format: functional; conditions: MTCC 98, 24 h
Escherichia coli = assay: Antibacterial activity against Escherichia coli MTCC 443 after 24 hr two-fold serial dilution method; format: functional; conditions: MTCC 443, 24 h
Vibrio cholerae = assay: Antibacterial activity against Vibrio cholerae after 24 hr two-fold serial dilution method; format: functional
Salmonella typhi = assay: Antibacterial activity against Salmonella enterica subsp. enterica serovar Typhi MTCC 531 after 24 hr two-fold serial dilution method; format: functional; conditions: MTCC 531, 24 h
Cryptococcus neoformans [1] = assay: Antifungal activity against Cryptococcus neoformans after 72 to 96 hr by two-fold serial dilution method; format: functional
Aspergillus flavus = assay: Antifungal activity against Aspergillus flavus after 72 to 96 hr by two-fold serial dilution method; format: functional
Candida albicans = assay: Antifungal activity against Candida albicans two-fold serial dilution method; format: functional
Fusarium oxysporum = assay: Antifungal activity against Fusarium oxysporum after 72 to 96 hr by two-fold serial dilution method; format: functional
Aspergillus niger = assay: Antifungal activity against Aspergillus niger after 72 to 96 hr by two-fold serial dilution method; format: functional
Cryptococcus neoformans [2] = assay: Antifungal activity against Cryptococcus neoformans at 200 ug/ml after 72 to 96 hr by two-fold serial dilution method; format: functional, organism-based

| SMILES | MIC (Bacillus subtilis) [µg/mL] | MIC (Klebsiella pneumoniae) [µg/mL] | MIC (Pseudomonas aeruginosa) [µg/mL] | MIC (Staphylococcus aureus) [µg/mL] | MIC (Salmonella typhimurium) [µg/mL] | MIC (Escherichia coli) [µg/mL] | MIC (Vibrio cholerae) [µg/mL] | MIC (Salmonella typhi) [µg/mL] | MIC (Cryptococcus neoformans [1]) [µg/mL] | MIC (Aspergillus flavus) [µg/mL] | MIC (Candida albicans) [µg/mL] | MIC (Fusarium oxysporum) [µg/mL] | MIC (Aspergillus niger) [µg/mL] | Activity (Cryptococcus neoformans [2]) |
| --- | --- | --- | --- | --- | --- | --- | --- | --- | --- | --- | --- | --- | --- | --- |
| CN[C@@H]1[C@H](O[C@H]2[C@H](O[C@H]3[C@H](O)[C@@H](O)[C@H](N=C(N)N)[C@@H](O)[C@@H]3N=C(N)N)O[C@@H](C)[C@]2(O)C=O)O[C@@H](CO)[C@H](O)[C@H]1O [STREPTOMYCIN] | 12.5 (≈ 21.5 µM) | 20 (≈ 34.4 µM) | 50 (≈ 86 µM) | 25 (≈ 43 µM) | 25 (≈ 43 µM) | 50 (≈ 86 µM) | 50 (≈ 86 µM) | 25 (≈ 43 µM) |  |  |  |  |  |  |
| Nc1ccc(C(=O)NN=C2C3CCCC2C(c2ccc(Cl)cc2)NC3c2ccc(Cl)cc2)cc1 (configuration not stated) | 50 (≈ 101 µM) | 200 (≈ 405 µM) | 100 (≈ 203 µM) | 50 (≈ 101 µM) | 200 (≈ 405 µM) | 50 (≈ 101 µM) | 100 (≈ 203 µM) | 200 (≈ 405 µM) | 200 (≈ 405 µM) | 100 (≈ 203 µM) | 100 (≈ 203 µM) | 200 (≈ 405 µM) | 50 (≈ 101 µM) |  |
| Nc1ccc(C(=O)NN=C2C3CCCC2C(c2ccccc2)NC3c2ccccc2)cc1 (configuration not stated) | 100 (≈ 236 µM) | 50 (≈ 118 µM) | 200 (≈ 471 µM) | 200 (≈ 471 µM) | 200 (≈ 471 µM) | 200 (≈ 471 µM) | 100 (≈ 236 µM) | 200 (≈ 471 µM) |  | 200 (≈ 471 µM) |  | 200 (≈ 471 µM) |  | inactive |
| Nc1ccc(C(=O)NN=C2C3CCCC2C(c2ccc(Br)cc2)NC3c2ccc(Br)cc2)cc1 (configuration not stated) | 200 (≈ 343 µM) | 200 (≈ 343 µM) | 50 (≈ 85.9 µM) | 50 (≈ 85.9 µM) | 200 (≈ 343 µM) | 100 (≈ 172 µM) | 200 (≈ 343 µM) | 50 (≈ 85.9 µM) | 100 (≈ 172 µM) | 100 (≈ 172 µM) | 200 (≈ 343 µM) | 100 (≈ 172 µM) | 50 (≈ 85.9 µM) |  |
| Nc1ccc(C(=O)NN=C2C3CCCC2C(c2ccccc2Cl)NC3c2ccccc2Cl)cc1 (configuration not stated) | 200 (≈ 405 µM) | 50 (≈ 101 µM) | 100 (≈ 203 µM) | 200 (≈ 405 µM) | 50 (≈ 101 µM) | 100 (≈ 203 µM) | 50 (≈ 101 µM) | 100 (≈ 203 µM) | 100 (≈ 203 µM) | 200 (≈ 405 µM) | 200 (≈ 405 µM) | 100 (≈ 203 µM) | 100 (≈ 203 µM) |  |
| Nc1ccc(C(=O)NN=C2C3CCCC2C(c2ccc(F)cc2)NC3c2ccc(F)cc2)cc1 (configuration not stated) | 25 (≈ 54.3 µM) | 50 (≈ 109 µM) | 200 (≈ 434 µM) | 50 (≈ 109 µM) | 100 (≈ 217 µM) | 100 (≈ 217 µM) | 50 (≈ 109 µM) | 100 (≈ 217 µM) | 200 (≈ 434 µM) | 200 (≈ 434 µM) | 100 (≈ 217 µM) | 50 (≈ 109 µM) | 100 (≈ 217 µM) |  |
| COc1ccc(C2NC(c3ccc(OC)cc3)C3CCCC2C3=NNC(=O)c2ccc(N)cc2)cc1 (configuration not stated) | 100 (≈ 206 µM) | 200 (≈ 413 µM) | 200 (≈ 413 µM) | 100 (≈ 206 µM) | 200 (≈ 413 µM) | 100 (≈ 206 µM) | 50 (≈ 103 µM) | 100 (≈ 206 µM) | 200 (≈ 413 µM) | 50 (≈ 103 µM) | 200 (≈ 413 µM) | 100 (≈ 206 µM) | 100 (≈ 206 µM) |  |
| Cc1ccc(C2NC(c3ccc(C)cc3)C3CCCC2C3=NNC(=O)c2ccc(N)cc2)cc1 (configuration not stated) | 100 (≈ 221 µM) | 200 (≈ 442 µM) | 200 (≈ 442 µM) | 200 (≈ 442 µM) | 200 (≈ 442 µM) | 100 (≈ 221 µM) | 200 (≈ 442 µM) | 100 (≈ 221 µM) | 100 (≈ 221 µM) | 200 (≈ 442 µM) | 200 (≈ 442 µM) | 100 (≈ 221 µM) | 100 (≈ 221 µM) |  |
| C[C@@H]1[C@H](O)[C@@H](C)/C=C/C=C/C=C/C=C/C=C/C=C/C=C/[C@H](O[C@@H]2O[C@H](C)[C@@H](O)[C@H](N)[C@@H]2O)C[C@@H]2O[C@](O)(C[C@@H](O)C[C@@H](O)[C@H](O)CC[C@@H](O)C[C@@H](O)CC(=O)O[C@H]1C)C[C@H](O)[C@H]2C(=O)O [AMPHOTERICIN B] |  |  |  |  |  |  |  |  | 25 (≈ 27.1 µM) | 50 (≈ 54.1 µM) | 25 (≈ 27.1 µM) | 25 (≈ 27.1 µM) | 50 (≈ 54.1 µM) |  |
